Source: US6875752B2, “Uridine derivatives as antibiotics” (Aventis Pharma S.A., priority 2001, dated 2005)

Key:
Assay in all cases: Method of dilutions in a liquid medium (M.I.C.)
Assay type in all cases: cell-based
S. pyogenes = S. pyogenes strains; incubation twenty-four hours at 37° C.; result in words only
Procedure: (§1) Detail of excipient starch, talc, magnesium stearate. Pharmacological Study of the Products of the Invention Method of Dilutions in a Liquid Medium
(§2) A series of tubes is prepared in which the same quantity of sterile nutritive medium is distributed. Increasing quantities of the product to be studied are distributed into each tube, then each tube is seeded with a bacterial strain. After incubation for twenty-four hours in a heating chamber at 37° C., the growth inhibition is evaluated by transillumination, which allows the minimal inhibitory concentrations (M.I.C.) to be determined, expressed in micrograms/cm^3.

E. faecium = E. faecium strains; incubation twenty-four hours at 37° C.; result in words only
Procedure: as §1, §2

S. aureus = S. aureus strains; incubation twenty-four hours at 37° C.; result in words only
Procedure: as §1, §2

Measured: activity (growth inhibition, minimal inhibitory concentrations M.I.C.)

CCCCCCCCCCCCCCCC(=O)NC[C@@H](O[C@@H]1O[C@H](CN)[C@@H](O)[C@H]1O)[C@@H]1C[C@@H](O)[C@H](n2ccc(=O)[nH]c2=O)O1 [Example 1, 1-[5-O-(5-amino-5-deoxy-β-D-ribofuranosyl)-3,6-dideoxy-6-[(1-oxohexadecyl)amino]-β-D-ribo-hexofuranosyl]-2,4-(1H,3H)-pyrimidinedione]
good activity: all assays above
